This is an account of results in PubChem BioAssay (NCI).

Test systems include ACHN renal; CCRF-CEM leukemia; EKVX NSCLC; MALME-3M melanoma; SF-295 CNS; SK-OV-3 ovarian; SR leukemia; TK-10 renal; MDA-MB-231 breast.
Experiment in all cases: NCI tumour cell line growth inhibition, 48 h

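Cells were grown in 96-well plates and exposed to each compound for 48 hours at five concentrations; endpoints were interpolated linearly between bracketing concentrations, or set to the highest concentration if not reached. GI50 marks 50% less growth. At the TGI there is no net growth.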 Bounds are passed on as bounds.

On to `CCCCC1(C(NC(=O)c2ccccc2Cl)c2ccncc2)C(=O)N(c2ccccc2)N(c2ccccc2)C1=O` (stereo not drawn), for which the TGI with ACHN renal, in the assay on CCRF-CEM leukemia, with EKVX NSCLC, in the assay with MALME-3M melanoma, with SF-295 CNS and in the assay with SK-OV-3 ovarian was greater than 100 µM throughout. For the same compound, the TGI with SR leukemia is 93.9 µM; in the assay on TK-10 renal it was greater than 100 µM.

Consider `Nc1ccccc1C#Cc1ccccc1C#Cc1cccs1`, for which the GI50 was 18.7 µM with ACHN renal; 19.9 µM with CCRF-CEM leukemia; 18 µM in the assay on EKVX NSCLC; 11.8 µM in the assay with MDA-MB-231 breast; 16.1 µM in the assay with SF-295 CNS; 32.7 µM in the assay on SK-OV-3 ovarian. For the same compound, the TGI in the assay on ACHN renal is 39.4 µM; in the assay on CCRF-CEM leukemia it was 70.1 µM; with EKVX NSCLC, 48.5 µM; in the assay on MDA-MB-231 breast, 28.2 µM; with SF-295 CNS, 37.3 µM; in the assay on SK-OV-3 ovarian, greater than 100 µM.

For `O=C1CCC(=O)N1Sc1ccccc1`, the TGI in the assay with ACHN renal, in the assay on CCRF-CEM leukemia, with EKVX NSCLC, with SF-295 CNS, in the assay with SK-OV-3 ovarian and in the assay with TK-10 renal was greater than 100 µM each time.

Consider `Cc1ccc2ccc(-c3ccccc3)c3c2c1C(=O)c1ccccc1C3=O`, for which the TGI with ACHN renal, in the assay with CCRF-CEM leukemia, with EKVX NSCLC, with MALME-3M melanoma, in the assay with SF-295 CNS and with SK-OV-3 ovarian was greater than 100 µM each time. The TGI with SR leukemia and in the assay with TK-10 renal was greater than 100 µM each time.

For `OCC(O)C(O)C(O)c1nn(-c2ccc(F)cc2)c2nc3cc(Cl)c(Cl)cc3nc12` (stereo not drawn), the TGI was 40 µM with CCRF-CEM leukemia; 49.2 µM in the assay with EKVX NSCLC; 23.5 µM in the assay with MALME-3M melanoma; greater than 100 µM in the assay with SF-295 CNS; 46.4 µM in the assay with SK-OV-3 ovarian; 59.1 µM in the assay with TK-10 renal.

`CN(C)c1ccc(C(O)C2=CC(=O)c3ccccc3C2=O)cc1` (stereo not drawn): the GI50 in the assay on ACHN renal is 3.69 µM; in the assay on EKVX NSCLC it was 5.37 µM; with MALME-3M melanoma it was 24200 nM; with SF-295 CNS it was 25.1 µM; with SK-OV-3 ovarian, 3.07 µM; with SR leukemia, 1880 nM. Moreover, the GI50 with TK-10 renal was 12.1 µM. The TGI in the assay with ACHN renal was 31.8 µM; in the assay on EKVX NSCLC it was 92.9 µM; in the assay with MALME-3M melanoma it was 56.7 µM; in the assay on SF-295 CNS, 93.3 µM; in the assay with SK-OV-3 ovarian, 15.5 µM; in the assay with SR leukemia, 4.49 µM. The compound also had a TGI in the assay with TK-10 renal of 44.3 µM.

As for `COc1ccc(Br)c(C(=O)N2CCc3ccccc32)c1N`, the TGI in the assay on ACHN renal was greater than 100 µM; with CCRF-CEM leukemia it was greater than 100 µM; in the assay on MALME-3M melanoma it was greater than 100 µM; in the assay on SF-295 CNS, greater than 100 µM; in the assay with SK-OV-3 ovarian, 80.2 µM; in the assay on SR leukemia it was 79.1 µM. Moreover, in the assay on TK-10 renal, the TGI is greater than 100 µM.

Consider `CCOC1Oc2ccc(C)cc2C(=O)/C1=C\Nc1ccc(S(N)(=O)=O)cc1` (stereo not drawn), for which the GI50 is 12.6 µM in the assay with ACHN renal; 9.43 µM in the assay on EKVX NSCLC; 11.7 µM in the assay on MDA-MB-231 breast; 12.6 µM with SF-295 CNS; 17.7 µM in the assay on SK-OV-3 ovarian; 9230 nM in the assay on SR leukemia. For the same compound, in the assay on TK-10 renal, the GI50 is 15.7 µM. The TGI was 45 µM in the assay on ACHN renal; 31.4 µM with EKVX NSCLC; 35.5 µM in the assay on MDA-MB-231 breast; 35.7 µM in the assay on SF-295 CNS; greater than 50 µM with SK-OV-3 ovarian; greater than 50 µM in the assay on SR leukemia. In addition, in the assay with TK-10 renal, the TGI was greater than 50 µM.

With `O=c1oc2c3ccc4ccccc4c3n(CCN3CCCCC3)c2c2ccccc12`, the TGI with ACHN renal is greater than 100 µM; in the assay on CCRF-CEM leukemia it was greater than 91.7 µM; with EKVX NSCLC it was greater than 100 µM; in the assay on MALME-3M melanoma, greater than 88.6 µM; in the assay on SF-295 CNS it was 39.3 µM; with SK-OV-3 ovarian, greater than 78.5 µM. Moreover, the TGI in the assay on SR leukemia and in the assay with TK-10 renal was greater than 100 µM throughout.

As to `COc1cccc(/C=N\NC(=O)C(C)SC(C)C(=O)N/N=C/c2cccc(OC)c2)c1` (stereo not drawn), the TGI in the assay with ACHN renal is 35.6 µM; in the assay on CCRF-CEM leukemia, greater than 93.5 µM; with EKVX NSCLC, 60.2 µM; with MALME-3M melanoma it was greater than 100 µM; in the assay on SF-295 CNS it was greater than 88.6 µM; in the assay with SK-OV-3 ovarian it was 32.4 µM. Moreover, the TGI with SR leukemia was greater than 100 µM; with TK-10 renal, 36.6 µM.

Regarding `Cc1ccc(S(=O)C(C)C(Cl)c2ccccc2)cc1` (stereo not drawn), the TGI in the assay with ACHN renal, with CCRF-CEM leukemia, in the assay with SF-295 CNS, with SK-OV-3 ovarian, with SR leukemia and in the assay on TK-10 renal was greater than 100 µM in each case.

As for `Cn1cnnc1[S-].[Au+].c1ccc([PH+](c2ccccc2)c2ccccc2)cc1`, the GI50 in the assay on ACHN renal is 1.77 µM; with MALME-3M melanoma, 1490 nM; in the assay with MDA-MB-231 breast, 1.67 µM; in the assay on SF-295 CNS it was 1.85 µM; in the assay with TK-10 renal it was 1.72 µM. In addition, the TGI turned out to be 3.16 µM with ACHN renal; 2.91 µM in the assay with MALME-3M melanoma; 3.08 µM with MDA-MB-231 breast; 3.82 µM in the assay with SF-295 CNS; 3.2 µM with TK-10 renal.

As to `CCc1ccc2c(c1)N(CCO)C1=C(C(=O)OC1)C2c1cc(OC)c(OC)c(OC)c1` (stereo not drawn), the GI50 in the assay on ACHN renal is 0.389 µM; in the assay on CCRF-CEM leukemia, 0.185 µM; in the assay on EKVX NSCLC, 1.17 µM; in the assay on MALME-3M melanoma, 218 nM; in the assay with SF-295 CNS, 0.126 µM; in the assay on SK-OV-3 ovarian, 0.169 µM. Besides, the GI50 in the assay on SR leukemia was 187 nM; with TK-10 renal, 0.248 µM. Also, the TGI with ACHN renal is greater than 50 µM; in the assay on CCRF-CEM leukemia, greater than 50 µM; in the assay on EKVX NSCLC, greater than 50 µM; with MALME-3M melanoma, greater than 50 µM; with SF-295 CNS it was 0.469 µM; in the assay with SR leukemia, greater than 50 µM. In the assay with TK-10 renal, this compound registered a TGI greater than 50 µM.

With `C1=CC2CCC1CN2CCC1CNc2ccccc21` (stereo not drawn), the TGI with ACHN renal, in the assay with CCRF-CEM leukemia, in the assay with EKVX NSCLC, in the assay with MALME-3M melanoma, with SF-295 CNS and with SK-OV-3 ovarian was greater than 100 µM each time. Further, the TGI in the assay on SR leukemia and with TK-10 renal was greater than 100 µM throughout.

`O=C(/C=C/c1ccccc1O)c1ccccc1Cl`: the TGI is greater than 100 µM in the assay on ACHN renal; 88.5 µM in the assay on CCRF-CEM leukemia; greater than 100 µM in the assay on EKVX NSCLC; greater than 100 µM with MALME-3M melanoma; greater than 100 µM in the assay with SF-295 CNS; greater than 100 µM in the assay on SK-OV-3 ovarian. Also, the TGI in the assay with SR leukemia is 76.5 µM; with TK-10 renal, greater than 100 µM.

Regarding `CC1(C)OC(=O)C(=C2CCC(C(=O)Nc3cccc(C(F)(F)F)c3)N2)C(=O)O1` (stereo not drawn), the TGI with ACHN renal, in the assay on CCRF-CEM leukemia, in the assay on EKVX NSCLC, with MALME-3M melanoma, with SF-295 CNS and with SK-OV-3 ovarian was greater than 100 µM each time. The same compound had a TGI in the assay with TK-10 renal greater than 100 µM.

Turning to `Cc1cc(C)nc(NS(=O)(=O)c2ccc(Nc3c4ccccc4nc4c(C(=O)NCCN(C)C)cccc34)cc2)n1`, the TGI in the assay with ACHN renal came out at 15.9 µM; in the assay on CCRF-CEM leukemia, 22.6 µM; in the assay with EKVX NSCLC, 23.6 µM; with SF-295 CNS, 14.9 µM; with SR leukemia it was 43.7 µM; in the assay with TK-10 renal, 27.7 µM.

With `Cc1cc(Cl)ccc1NC(=O)C1C(=O)N(c2ccc(Cl)cc2C)C(=O)/C1=N\NC(N)=S` (stereo not drawn), the TGI in the assay with ACHN renal was greater than 100 µM; in the assay with CCRF-CEM leukemia, 56.5 µM; in the assay with EKVX NSCLC, 51.8 µM; with MALME-3M melanoma it was 49.7 µM; in the assay on SF-295 CNS, 86.4 µM; in the assay on TK-10 renal, greater than 100 µM.

On to `COc1cc(OC)c2c(=O)c3cccc([N+](=O)[O-])c3n(C)c2c1`, for which the TGI with CCRF-CEM leukemia, with EKVX NSCLC, with MALME-3M melanoma, in the assay with SF-295 CNS, in the assay with SK-OV-3 ovarian and in the assay with TK-10 renal was greater than 100 µM each time.

For `N#CCc1cccc(CC#N)c1Br`, the TGI in the assay with ACHN renal, in the assay with CCRF-CEM leukemia, with EKVX NSCLC, in the assay with MALME-3M melanoma, in the assay with SF-295 CNS and in the assay with SK-OV-3 ovarian was greater than 100 µM in each case. The compound further registered a TGI in the assay with SR leukemia greater than 100 µM.

For the compound `O=C(O)CSc1n[nH]c(-c2ccco2)n1`, the TGI in the assay on ACHN renal, with CCRF-CEM leukemia, with EKVX NSCLC, with MALME-3M melanoma, in the assay with SF-295 CNS and in the assay on SK-OV-3 ovarian was greater than 100 µM each time. The TGI in the assay on TK-10 renal was greater than 100 µM.

As to `O=C1OC(=O)C([Se]c2ccccc2)=C1[Se]c1ccccc1`, the TGI with ACHN renal, in the assay on CCRF-CEM leukemia, in the assay with EKVX NSCLC, with MALME-3M melanoma, in the assay with SF-295 CNS and in the assay with SK-OV-3 ovarian was greater than 100 µM throughout. The TGI in the assay on SR leukemia and in the assay with TK-10 renal was greater than 100 µM each time.

Take `COc1cc2c(c(OC)c1OC)C(=O)NCCC2`: the TGI in the assay with ACHN renal, in the assay with CCRF-CEM leukemia, in the assay on EKVX NSCLC, in the assay with MALME-3M melanoma, in the assay on SF-295 CNS and with SK-OV-3 ovarian was greater than 100 µM each time. For the same compound, the TGI with SR leukemia and with TK-10 renal was greater than 100 µM in each case.
